Measurements published in the Kinase Knowledgebase extract (Sharma et al. 2016).

Columns and labels:
MAPK14 (human) [1] = biological target: MAPK14 (human) (UniProt Q16539); assay: Inhibition of MAPK14 Kinase Activity by Fluorescence Anisotropy Kinase Binding Assay
MAPK14 (human) [2] = biological target: MAPK14 (human) (UniProt Q16539); assay: Inhibition of MAPK14 Kinase Activity

Sequence of MAPK14 (human) (Q16539 whole entry, looked up): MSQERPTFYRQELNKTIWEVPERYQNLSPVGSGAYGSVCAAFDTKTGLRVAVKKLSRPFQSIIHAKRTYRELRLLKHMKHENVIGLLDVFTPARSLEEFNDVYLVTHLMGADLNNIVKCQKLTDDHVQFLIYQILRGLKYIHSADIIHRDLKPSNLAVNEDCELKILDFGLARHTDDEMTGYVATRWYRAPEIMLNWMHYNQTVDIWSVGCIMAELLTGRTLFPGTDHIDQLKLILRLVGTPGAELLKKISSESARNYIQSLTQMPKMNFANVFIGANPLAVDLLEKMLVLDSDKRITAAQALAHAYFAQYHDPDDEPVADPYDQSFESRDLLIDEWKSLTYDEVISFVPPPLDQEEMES

For C[C@@H](CO)Nc1nc(-c2ccc(F)cc2F)c2ccc(=O)n(-c3ccc(F)cc3)c2n1, the IC50 (MAPK14 (human) [1]) was < 1 µM.

For O=c1ccc2c(-c3ccc(F)cc3)nc(NC(CO)CO)nc2n1-c1c(F)cc(F)cc1F, the IC50 (MAPK14 (human) [1]) was < 1 µM.

In the case of O=c1ccc2c(-c3ccc(F)cc3Cl)nc(NC(CO)CO)nc2n1-c1ccc(F)cc1F, the IC50 (MAPK14 (human) [1]) is reported as < 1 µM.

For O=c1ccc2c(-c3ccc(F)cc3F)nc(NC(CO)CO)nc2n1-c1ccc(F)cc1F, the IC50 (MAPK14 (human) [2]) was < 10 µM and the IC50 (MAPK14 (human) [1]) was < 1 µM.

For O=c1ccc2c(-c3ccccc3F)nc(NC(CO)CO)nc2n1-c1c(F)cc(F)cc1F, the IC50 (MAPK14 (human) [2]) was < 10 µM and the IC50 (MAPK14 (human) [1]) was < 1 µM.

O=c1ccc2c(-c3ccc(F)cc3F)nc(NC(CO)CO)nc2n1-c1cccc(F)c1F was tested, and the IC50 (MAPK14 (human) [1]) was < 1 µM.

In the case of O=c1ccc2c(-c3ccc(F)cc3F)nc(NC(CO)CO)nc2n1-c1c(F)cc(F)cc1F, the IC50 (MAPK14 (human) [2]) is reported as < 10 µM and the IC50 (MAPK14 (human) [1]) is reported as < 1 µM.
